Results taken from patent US10464941B2, “Therapeutic compounds” (REGENTS OF THE UNIVERSITY OF MINNESOTA, priority 2015, dated 2019).
Marks after values point to notes of the source that are not given here.

Experiments:
[1] = system: control mice; assay: Radiant heat tail-flick antinociception, control (LPS-untreated) mice; assay type: in vivo; conditions: control mice; for CONTROLS ED50 (CI) i.c.v. / CONTROLS ED50 (CI) i.t.: tail flick
Source text: Pain is a hallmark of many inflammatory conditions.

[2] = system: LPS-pretreated mice; assay: animal or person; conditions: for LPS pretreated ED50 (CI) i.t. / LPS pretreated i.c.v./i.t. ratio / LPS pretreated ED50 (CI) i.c.v.: LPS 1 mg/kg 24 hours i.p.; for LPS pretreated ED50 (CI) i.t. / LPS pretreated ED50 (CI) i.c.v.: tail flick; for percent maximal possible effect at highest dose measured: 1000 pmol/mouse; for ED50 values (95% CI) LPS (thermal): LPS thermal hyperalgesia model; for Relative Potency relative to a mixture of monovalent mu agonist (4) and CCR5 antagonist (2): mouse, in vivo
Description: Male ICR-CD1 mice (17-25 g; Harlan, Madison, Wis.), C3H mice (15-20 g, National Cancer Institute, Bethesda, Md.) or TLR4 knock-out mice (gift from Dr. Sabita Roy) were housed, 4 to a small box in a temperature- and humidity-controlled environment with unlimited access to food and water. They were maintained on a 12 h light/dark cycle. All experiments were approved by the Institutional Animal Care and Use Committee of the University of Minnesota (Minneapolis, Minn.).
The tail flick assay is used to test for antinociception described by D'Amour and Smith^64 and modified by Dewey et. al.^65 Mice are held gently in one hand with the tail positioned in the apparatus (Tail Flick Analgesia Meter, Columbus Instruments, Columbus, Ohio) for radiant heat stimulus. The tail-flick response is elicited by applying radiant heat to the dorsal side of the tail. The test latency is measured before drug treatment (control) and again after the drug treatment (test) at the peak time of the compound, a 10 s maximum cut-off time is used to prevent damage to the tail. Antinociception is quantified according to the method of Harris and Pierson^66 as the percent maximal possible effect (% MPE) which is calculated as: % MPE=(Test−Control/10−Control)×100
A minimum of three groups of eight to ten mice are used for each dose response curve, and each mouse is used only once.
The compounds were tested for acute tolerance by comparing the ED80-90 dose measured on day 1 to the same dose administered and retested 24 hours later on the same mouse.
Compounds were dissolved in 5% DMSO and diluted to less than 1% DMSO for injection. These compounds were administered in a volume of 5-μl either i.c.v (Haley and McCormick) or intrathecal (i.t.) as described for mice by Hylden and Wilcox^67 in conscious mice. […] Time course studies, including the times 5, 10, 20, 30 and 60 minutes were used to determine the peak antinociception.
Pain is a hallmark of many inflammatory conditions. […] Antinociception was evaluated using the radiant heat-induced tailflick assay. Morphine was employed as a standard opioid agonist under these conditions.

[3] = system: CFA-induced mechanical hyperalgesia mouse model; assay: Complete Freund's Adjuvant (CFA) mechanical hyperalgesia, electronic von Frey; assay type: in vivo, mice; conditions: i.t.
Description: Before injection of CFA baseline withdrawal thresholds (g) were obtained from a mechanical stimulation using an electronic von Frey anesthesiometer (IITC Life Sciences, Woodland Hills, USA) by applying an accurate force on both left and right hind paw. (2,3) The left hindpaws were then injected (intraplantar) with a 50% solution of CFA (10 μg, Sigma-Aldrich) in water while the mice are under isoflurane anesthesia (10). Twenty-four hours later the withdrawal threshold (g) was again measured prior to and after the test compound i.t. at 10, 20, 30 and 60 minutes to determine the peak time and subsequent ED50. % MPE was calculated ((Time-point withdrawal threshold with drug−CFA withdrawal threshold)/(Day 0 withdrawal threshold−CFA withdrawal threshold))*100 (Wade, C. L., et al., PLoS One 2013, 8, e79239/1-e79239/11, 11 pp; Martinov, T., et al., J Vis Exp 2013, e51212; Sorge, R. E., et al., J. Neurosci. 2011, 31, 15450-15454).

| SMILES | CONTROLS i.c.v./i.t. ratio [1] | percent maximal possible effect at highest dose measured ([1]; i.c.v., 1000 pmol/mouse) | percent maximal possible effect at highest dose measured ([1]; i.t., 1000 pmol/mouse) [%] | LPS pretreated ED50 (CI) i.t. ([2]; i.t.) [pmol/mouse] | percent maximal possible effect at highest dose measured ([2]; LPS pretreated, i.c.v.) [%] | acute tolerance (ED80 retested 24 hours later) ([1]; i.c.v.) | CONTROLS ED50 (CI) i.c.v. ([1]; i.c.v.) [pmol/mouse] | acute tolerance (ED80 retested 24 hours later) ([1]; i.t.) | CONTROLS ED50 (CI) i.t. ([1]; i.t.) [pmol/mouse] | LPS pretreated i.c.v./i.t. ratio [2] | LPS pretreated ED50 (CI) i.c.v. ([2]; i.c.v.) [pmol/mouse] | ED50 values (95% CI) LPS (thermal) ([2]; i.t.) [pmol/mouse] | Relative Potency relative to a mixture of monovalent mu agonist (4) and CCR5 antagonist (2) [2] | ED50 values (95% CI) CFA (mechanical) [3] [pmol/mouse] | percent maximal possible effect at highest dose measured ([1]; i.c.v., 250 pmol/mouse) [%] | % MPE still present 24 hours later ([2]; LPS pretreated, i.t., 24 hours later) [% MPE] | tolerance upon repeated administration ([2]; i.t., LPS-pretreated mice) | percent maximal possible effect at highest dose measured ([1]; i.t., 500 pmol/mouse) [%] | percent maximal possible effect at highest dose measured ([2]; LPS pretreated, i.t.) [%] |
| --- | --- | --- | --- | --- | --- | --- | --- | --- | --- | --- | --- | --- | --- | --- | --- | --- | --- | --- | --- |
| CC(=O)N1CCC(C(=O)N(CCCN2CCC(Cc3ccc(C(N)=O)cc3)CC2)c2ccc(C)c(Cl)c2)CC1 [Compound 2, TAK-220, reference compound] | 1 | 26.2 ± 5.9% | 34.2 ± 10.8 | 740 | 7.6 ± 1.5 |  |  |  |  |  |  |  |  |  |  |  |  |  |  |
| Cc1ccc(N(CCCN2CCC(Cc3ccc(C(N)=O)cc3)CC2)C(=O)C2CCN(C(=O)COCC(=O)NCCNC(=O)COCC(=O)N[C@H]3CC[C@@]4(O)C5Cc6ccc(O)c7c6[C@@]4(CCN5C)[C@H]3O7)CC2)cc1Cl [Compound 3a, N-(3-(4-(4-carbamoylbenzyl)piperidin-1-yl)propyl)-N-(3-chloro-4-methylphenyl)-1-(14-(((4aS,7S,7aR,12bS)-4a,9-dihydroxy-3-methyl-2,3,4,4a,5,6,7,7a-octahydro-1H-4,12-methanobenzofuro[3,2-e]isoquinolin-7-yl)amino)-5,10,14-trioxo-3,12-dioxa-6,9-diazatetradecan-1-oyl)piperidine-4-carboxamide] | 3.29 |  |  | 10.6 |  | (78.2-145)^c | 107 | (27.3-38.4)^b | 32.3 | 5.32 | 56.41 | 11 | 4.9 | 3 |  |  |  |  |  |
| Cc1ccc(N(CCCN2CCC(Cc3ccc(C(N)=O)cc3)CC2)C(=O)C2CCN(C(=O)COCC(=O)NCCCCCNC(=O)COCC(=O)N[C@H]3CC[C@@]4(O)C5Cc6ccc(O)c7c6[C@@]4(CCN5C)[C@H]3O7)CC2)cc1Cl [Compound 3b, N-(3-(4-(4-carbamoylbenzyl)piperidin-1-yl)propyl)-N-(3-chloro-4-methylphenyl)-1-(17-(((4aS,7S,7aR,12bS)-4a,9-dihydroxy-3-methyl-2,3,4,4a,5,6,7,7a-octahydro-1H-4,12-methanobenzofuro[3,2-e]isoquinolin-7-yl)amino)-5,13,17-trioxo-3,15-dioxa-6,12-diazaheptadecan-1-oyl)piperidine-4-carboxamide] | 3.14 |  |  | 10.9 |  | (166-72.2)^c | 358 | (253-543)^c | 371 | 6.38 | 187 |  | 4.8 |  |  |  |  |  |  |
| Cc1ccc(N(CCCN2CCC(Cc3ccc(C(N)=O)cc3)CC2)C(=O)C2CCN(C(=O)COCC(=O)NCCCCCCCNC(=O)COCC(=O)N[C@H]3CC[C@@]4(O)C5Cc6ccc(O)c7c6[C@@]4(CCN5C)[C@H]3O7)CC2)cc1Cl [Compound 3c, N-(3-(4-(4-carbamoylbenzyl)piperidin-1-yl)propyl)-N-(3-chloro-4-methylphenyl)-1-(19-(((4aS,7S,7aR,12bS)-4a,9-dihydroxy-3-methyl-2,3,4,4a,5,6,7,7a-octahydro-1H-4,12-methanobenzofuro[3,2-e]isoquinolin-7-yl)amino)-5,15,19-trioxo-3,17-dioxa-6,14-diazanonadecan-1-oyl)piperidine-4-carboxamide] |  |  |  | 11.4 |  |  |  | (54.6-507)^c | 166 | 60.7 | 692 |  | 4.6 |  | 35.9 ± 9.0 |  |  |  |  |
| Cc1ccc(N(CCCN2CCC(Cc3ccc(C(N)=O)cc3)CC2)C(=O)C2CCN(C(=O)COCC(=O)NCCCCCCCCCNC(=O)COCC(=O)N[C@H]3CC[C@@]4(O)C5Cc6ccc(O)c7c6[C@@]4(CCN5C)[C@H]3O7)CC2)cc1Cl [Compound 3d, N-(3-(4-(4-carbamoylbenzyl)piperidin-1-yl)propyl)-N-(3-chloro-4-methylphenyl)-1-(21-(((4aS,7S,7aR,12bS)-4a,9-dihydroxy-3-methyl-2,3,4,4a,5,6,7,7a-octahydro-1H-4,12-methanobenzofuro[3,2-e]isoquinolin-7-yl)amino)-5,17,21-trioxo-3,19-dioxa-6,16-diazahenicosan-1-oyl)piperidine-4-carboxamide] | 63.98 | 54.5 ± 14.5^ % |  | 8.43 | 63.1 ± 45.2 |  |  |  | 15.83 | 118.62 |  |  | 6.2 |  |  | 24 |  |  |  |
| Cc1ccc(N(CCCN2CCC(Cc3ccc(C(N)=O)cc3)CC2)C(=O)C2CCN(C(=O)COCC(=O)NCCCCCCCCCCCCNC(=O)COCC(=O)N[C@H]3CC[C@@]4(O)C5Cc6ccc(O)c7c6[C@@]4(CCN5C)[C@H]3O7)CC2)cc1Cl [Compound 3f, N-(3-(4-(4-carbamoylbenzyl)piperidin-1-yl)propyl)-N-(3-chloro-4-methylphenyl)-1-(24-(((4aS,7S,7aR,12bS)-4a,9-dihydroxy-3-methyl-2,3,4,4a,5,6,7,7a-octahydro-1H-4,12-methanobenzofuro[3,2-e]isoquinolin-7-yl)amino)-5,20,24-trioxo-3,22-dioxa-6,19-diazatetracosan-1-oyl)piperidine-4-carboxamide] | ~2.97 | 27.6 ± 9.1% |  | 122.70 | 55.7 ± 11.2 |  |  |  | 336.9 | 8.15^d |  | 123 | 0.4 | 58 |  |  |  |  |  |
| CNC(=O)COCC(=O)NCCCCCCCNC(=O)COCC(=O)N[C@H]1CC[C@@]2(O)C3Cc4ccc(O)c5c4[C@@]2(CCN3C)[C@H]1O5 [Compound 4, reference compound] | 0.95 |  |  | 21.3 |  | (83.1-141)^c | 108 | (86.5-148)^c | 113 | 7.93 | 169 | 21 |  | 27 |  |  | exhibited tolerance |  |  |
| CNC(=O)COCC(=O)NCCCCCCCNC(=O)COCC(=O)N1CCC(C(=O)N(CCCN2CCC(Cc3ccc(C(N)=O)cc3)CC2)c2ccc(C)c(Cl)c2)CC1 [Compound 5, N-(3-(4-(4-carbamoylbenzyl)piperidin-1-yl)propyl)-N-(3-chloro-4-methylphenyl)-1-(3,7,17-trioxo-5,19-dioxa-2,8,16-triazahenicosan-21-oyl)piperidine-4-carboxamide] |  |  |  |  | 51.9 ± 12.3 |  | 505 |  |  |  |  |  |  |  |  |  |  | 28.1 ± 11.3 | 32.4 ± 12.5 |
